Measurements published in PMC11579541, “In vitro, in vivo, and in silico approaches for evaluating the preclinical DMPK profiles of ammoxetine, a novel chiral serotonin and norepinephrine reuptake inhibitor” (Frontiers in Pharmacology, 2024).
Values joined by “and” are separate entries in the source; they are usually repeats but may differ in a detail not shown here. Identical values can stand only once.

Legend:
HLM = experiment: Hepatic microsome stability assay, HLM; type: in vitro ADME, human; conditions: predicted hepatic clearance
Description: (§1) A hepatic microsome stability assay was conducted to investigate the metabolic disposition of ammoxetine. In this assay, 100 μL of ammoxetine (2.5 μmol/L) was incubated at 37°C with 100 μL of liver microsomes (RLM, DLM, MLM, or HLM) formulated in a 5 mmol/L dipotassium hydrogen phosphate (K2HPO4) buffer at pH 7.4. The concentration of microsomes was 0.5 g/L. To initiate the incubations, 50 μL of NADPH solution preincubated at 37°C was added. […] Parallel triplicate samples were prepared for each time point, including 0, 2, 5, 10, 15, 30, 60, 90, and 120 min. To stop the reactions at each time point, 250 μL of ice-cold precipitating agent (acetonitrile/methanol, 1:1, v/v) containing 500 ng/mL of L-phencynonate (IS) was added to the incubation mixture. The samples were vortexed for 2 min at 4°C and then centrifuged at 13,800×g for 10 min. The supernatants were analyzed using an LC-MS-MS approach. […]
(§2) In Formula 3, t1/2 (min) represents the half-life of ammoxetine in liver microsomes. It is calculated by dividing −0.693 by the resulting slope (k e) obtained from a natural logarithm plot of the remaining concentration of ammoxetine against incubation time. […]

[1] = Hepatic microsome stability assay, HLM; type: in vitro ADME, human; conditions: human, liver microsomes, pH 7.4; 1 μmol/L, 0.2 g/L microsomes, NADPH
Description: as §1, §2

CYP 3A4 = CYP 3A4 (Homo sapiens, UniProt P08684); experiment: Phenotyping with recombinant human CYP 3A4; type: in vitro ADME; design: purchased BD (Woburn, USA); conditions: 5 μmol/L, 25 pmol/mL CYP, 1 h
Description: Ammoxetine (final concentration 5 μmol/L) was incubated with recombinant human CYP 3A4, CYP 1A2, CYP 2C9, CYP 2C19, and CYP 2D6 (final concentration 25 pmol/mL) in a 5 mmol/L K2HPO4 buffer at pH 7.4. The incubations were performed in quintuplicate. NADPH (final concentration 1 mmol/L) was added to initiate the incubation process. The mixture was then incubated at 37°C for 1 h. To stop the reaction, 200 μL of ice-cold acetonitrile/methanol (1:1, v/v) containing 500 ng/mL of L-phencynonate (IS) was added. The samples were vortexed for 2 min and centrifuged at 13,800×g and 4°C for 10 min. The supernatants obtained were analyzed using an LC-MS-MS method. To establish appropriate controls, zero-time controls and blank controls in the absence of NADPH were set up in parallel.

[2] = Configurational stability study (in vivo chiral inversion); design: species or system SD rats; conditions: rat plasma 2 h after 50 mg/kg oral, chiral HPLC
Description: Twelve SD rats were divided into three groups: a blank control group, an S-071031B group (50 mg/kg), and an R-071031B group (50 mg/kg). Prior to administration, the animals underwent a 12-h fasting period while having access to water. At 2 h post-dosing, the rats were anesthetized, and blood samples were collected from the abdominal aorta into heparinized tubes. Plasma samples were obtained by centrifuging the collected blood at 2,000×g for 10 min to remove blood cells. Subsequently, 1 mL of plasma sample was mixed with 100 μL of 0.1% sodium hydroxide solution and 4 mL of ether. After centrifugation at 2,000×g for 10 min, the upper organic phase within each group was combined, transferred to a new tube, and dried under a stream of nitrogen. The resulting residues were reconstituted with 100 μL of methanol for subsequent HPLC analysis.
A chiral chromatographic column was employed to separate the enantiomers, and the RT of X-071031B (racemic 071031B) and S-071031B (ammoxetine) standards were determined for identification. Plasma samples were collected from rats 2 h after oral administration of 50 mg/kg of S-071031B or R-071031B. The presence of a chromatographic peak at the RT corresponding to the opposite enantiomer following the administration of the S-isomer would indicate the conversion of the S-isomer to the R-isomer in rats. […]

Chain of CYP 3A4 (P08684 whole entry): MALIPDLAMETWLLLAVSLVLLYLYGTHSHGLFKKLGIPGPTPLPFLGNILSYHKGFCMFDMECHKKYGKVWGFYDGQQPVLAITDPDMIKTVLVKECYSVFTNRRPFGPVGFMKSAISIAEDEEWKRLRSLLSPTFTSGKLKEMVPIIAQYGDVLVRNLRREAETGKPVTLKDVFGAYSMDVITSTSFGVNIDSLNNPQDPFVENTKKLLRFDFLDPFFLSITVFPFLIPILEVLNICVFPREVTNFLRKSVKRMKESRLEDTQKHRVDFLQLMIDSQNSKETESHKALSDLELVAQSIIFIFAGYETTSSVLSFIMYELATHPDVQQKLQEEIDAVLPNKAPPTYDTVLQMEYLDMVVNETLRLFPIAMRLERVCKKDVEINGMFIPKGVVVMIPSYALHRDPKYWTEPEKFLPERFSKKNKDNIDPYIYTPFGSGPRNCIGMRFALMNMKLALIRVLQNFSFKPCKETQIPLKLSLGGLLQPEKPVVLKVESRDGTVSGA

Question: Which CL h (HLM) does the source give for `CNCC[C@H](Oc1cccc2c1OCO2)c1cccs1` [ammoxetine] here?
Answer: 9.05 ± 0.13 mL/min/kg

Question: What about the half-life at 1 μmol/L [1] of the same compound?
Answer: 4.16 ± 0.101 h

Question: What about the Transformation ratio% (CYP 3A4) of the same compound?
Answer: 24.49±3.65% and 24.49%

Question: And the “residuary concentration of ammoxetine, Mean±SD” value (CYP 3A4)?
Answer: 5.18±0.25

Question: What about the “chiral inversion in vivo” value [2] of the same compound?
Answer: does not undergo conversion to R-071031B
